Legend:
Experiment in all cases: relative viability (nuclei count vs DMSO), 5 days (fraction); higher = more cells survive
GSK-J4 + Navitoclax = compound: CCOC(=O)CCNc1cc(N2CCc3ccccc3CC2)nc(-c2ccccn2)n1 [GSK-J4] + CC1(C)CCC(c2ccc(Cl)cc2)=C(CN2CCN(c3ccc(C(=O)NS(=O)(=O)c4ccc(N[C@H](CCN5CCOCC5)CSc5ccccc5)c(S(=O)(=O)C(F)(F)F)c4)cc3)CC2)C1 [Navitoclax] (partner 0.5 µM)
In short: (§1)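 Values are medians from duplicate plates. Each reflects relative viability, defined as the nuclei count of treated wells over that of vehicle wells. Lung cancer cell lines in 1536-well plates were pin-tool dosed one day after seeding with one drug alone or with a fixed anchor-drug dose plus five library-drug doses (not always all listed) in √10 steps, then fixed, stained and imaged at 4× after 5 days.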

GSK-J4 + Foretinib = compound: CCOC(=O)CCNc1cc(N2CCc3ccccc3CC2)nc(-c2ccccn2)n1 [GSK-J4] + COc1cc2c(Oc3ccc(NC(=O)C4(C(=O)Nc5ccc(F)cc5)CC4)cc3F)ccnc2cc1OCCCN1CCOCC1 [Foretinib] (partner 0.25 µM)
In short: as §1

AZ3146 = compound: CN1CCC(CC1)OC2=CC(=C(C=C2)NC3=NC=C4C(=N3)N(C(=O)N4C)C5CCCC5)OC [AZ3146]
In short: (§2)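 After an overnight hold at 37 °C, lung cancer cell lines in 1536-well plates were pinned with five library-drug doses (not always all listed), each √10 from the next, on vehicle-anchored plates. The cells stayed 5 days without fresh medium, then a one-step fix, permeabilisation and Hoechst stain preceded 4× imaging and MetaXpress nuclear counts. A plate passed only with control CV under 25% and at least one doubling. Viability is the median, over plates, of treated-well nuclei relative to vehicle-well nuclei.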

GSK-J4 = compound: CCOC(=O)CCNc1cc(N2CCc3ccccc3CC2)nc(-c2ccccn2)n1 [GSK-J4]
In short: as §2

Cell Line	relative viability (GSK-J4 + Navitoclax; first compound 0.5 µM)	relative viability (GSK-J4 + Navitoclax; first compound 1.581 µM)	relative viability (GSK-J4 + Navitoclax; first compound 5 µM)	relative viability (GSK-J4 + Navitoclax; first compound 15.81 µM)	relative viability (GSK-J4 + Navitoclax; first compound 50 µM)	relative viability (GSK-J4 + Foretinib; first compound 0.5 µM)	relative viability (GSK-J4 + Foretinib; first compound 1.581 µM)	relative viability (GSK-J4 + Foretinib; first compound 5 µM)	relative viability (GSK-J4 + Foretinib; first compound 15.81 µM)	relative viability (GSK-J4 + Foretinib; first compound 50 µM)	relative viability (AZ3146; 0.08 µM)	relative viability (AZ3146; 0.253 µM)	relative viability (AZ3146; 0.8 µM)	relative viability (AZ3146; 2.53 µM)	relative viability (AZ3146; 8 µM)	relative viability (GSK-J4; 0.5 µM)	relative viability (GSK-J4; 1.581 µM)	relative viability (GSK-J4; 5 µM)	relative viability (GSK-J4; 15.81 µM)	relative viability (GSK-J4; 50 µM)
NCI-H441	0.818	0.362	0.508	0.667	0.535	0.962	0.875	1.1	0.906	0.759	0.939	1.18	1.01	1.05	1.03	0.967	0.85	0.827	0.92	0.796
NCI-H596	1.02	0.955	1.1	0.846	0.977	0.928	0.657	0.892	0.673	0.823	0.985	0.841	0.931	0.979	0.963	1.04	0.833	0.92	0.889	0.903
NCI-H727	0.394	–	0.648	0.404	0.208	0.808	0.835	1.03	0.99	0.518	0.838	1.08	0.838	1.21	0.74	0.863	0.754	1.11	0.85	0.468
NCI-H838	1.13	1.07	–	1.08	1.14	1.03	1.02	–	0.853	0.738	0.994	0.939	0.914	0.963	0.734	1.04	0.895	0.635	0.887	0.883
NCI-H1793	0.389	0.473	0.379	0.307	0.273	0.801	0.575	0.737	0.423	0.514	0.902	0.805	0.812	1.07	0.691	1.06	0.786	0.727	0.48	0.443
NCI-H1355	0.913	0.793	1.18	0.815	0.924	0.878	0.837	1.08	0.839	0.859	0.941	0.971	1	1.07	0.961	0.979	0.916	0.821	0.902	0.943
HARA	1.16	0.827	–	1.15	0.916	0.863	–	–	0.805	0.751	0.808	0.902	1.01	1.07	0.866	1.06	0.959	–	0.881	1.05
201T	1.19	1.28	1.25	1.21	1.16	1.1	1.09	1.07	0.923	1.06	0.997	0.993	0.941	0.964	0.983	1.01	0.983	0.928	0.947	0.943
NCI-H23	0.856	–	0.886	0.893	0.867	0.999	0.885	0.942	0.802	0.847	1.13	1.06	0.959	1.05	0.758	0.956	0.761	0.814	0.803	0.742
LC-2-ad	0.464	0.389	0.407	0.374	0.41	0.909	0.763	0.868	0.781	0.775	0.895	1.04	0.979	0.967	0.91	0.988	0.807	0.787	0.933	0.903
COR-L 105	0.692	0.551	0.647	0.88	0.679	1.13	0.877	0.834	1.02	0.969	0.82	0.874	0.939	0.825	0.504	0.925	0.864	0.795	0.949	0.861
NCI-H647	1.02	0.737	0.981	1.06	1.09	1.1	0.855	1.07	1.2	1.09	0.777	0.919	0.94	1.07	0.92	0.966	0.832	0.742	0.886	0.936
NCI-H1915	0.759	0.713	0.747	0.715	0.765	1.04	1.03	–	1.06	0.523	0.9	1.04	1.07	1.03	0.991	0.924	0.856	–	0.969	1.12
NCI-H2087	0.795	1.08	–	0.99	0.758	0.973	–	1.13	1.1	0.818	0.877	1.08	1.03	1.2	0.917	0.96	0.824	0.82	1.04	0.856
NCI-H2085	0.971	1.12	1.13	1.09	0.999	0.697	0.882	0.861	1.05	0.971	1	0.987	0.972	0.97	0.992	1.02	0.953	0.884	0.924	0.955
